This is an account of results in US20090275574A1, “NOVEL COMPOUNDS-300” (ASTRAZENECA AB, priority 2008, published 2009).

One assay concerns the target T1, cloned human M4 receptor (Homo sapiens, UniProt P08173).
T1 construct: purchased Perkin-Elmer RBHM4M; host or cells: Chinese hamster ovary cells (CHO), membranes
T1 sequence (P08173 1-479): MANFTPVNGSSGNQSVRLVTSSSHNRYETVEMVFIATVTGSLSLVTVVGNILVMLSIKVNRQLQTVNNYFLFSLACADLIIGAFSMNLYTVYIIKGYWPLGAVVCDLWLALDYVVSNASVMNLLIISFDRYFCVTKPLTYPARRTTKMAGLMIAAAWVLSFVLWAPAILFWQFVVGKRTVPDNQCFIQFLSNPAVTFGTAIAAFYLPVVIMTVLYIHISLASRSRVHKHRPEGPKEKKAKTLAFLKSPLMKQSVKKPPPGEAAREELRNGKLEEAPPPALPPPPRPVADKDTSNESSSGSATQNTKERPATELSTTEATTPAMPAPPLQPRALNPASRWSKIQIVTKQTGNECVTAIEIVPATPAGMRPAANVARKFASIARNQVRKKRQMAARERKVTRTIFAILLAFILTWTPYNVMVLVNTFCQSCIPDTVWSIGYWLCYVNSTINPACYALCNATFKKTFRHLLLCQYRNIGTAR
The assay can be described thus: hM4 receptor GTPγS binding. The format is biochemical. The following applies: CHO membranes expressing hM4, [35S]GTPγS binding. The method, then:
hM4 Receptor GTPγS Binding Membranes produced from Chinese hamster ovary cells (CHO) expressing the cloned human M4 receptor (human Muscarinic receptor subtype 4, gene bank access NM_000741), are obtained from Perkin-Elmer (RBHM4M). The membranes are thawed at 37° C., passed 3 times through a 23-gauge blunt-end needle, diluted in the GTPγS binding buffer (50 mM Hepes, 20 mM NaOH, 100 mM NaCl, 1 mM EDTA, 5 mM MgCl2, pH 7.4, 100 μM DTT). The EC50, IC50 and Emax of the compounds of the invention are evaluated from 10-point dose-response curves (three fold concentration range) done in 60 μl in 384-well non-specific binding surface plate (Corning). Ten microliters from the dose-response curves plate (5× concentration) are transferred to another 384 well plate containing 25 μl of the following: 10 μg of hM4 membranes, 500 μg of Flashblue beads (Perkin-Elmer) and GDP 40 μM. An additional 15 μl containing 3.3× (60,000 dpm) of GTPγ^35S (0.4 nM final) are added to the wells resulting in a total well volume of 50 μl. Basal and maximal stimulated [^35S]GTPγS binding are determined in absence and presence of 30 μM final of acetylcholine agonist. The membranes/beads mix are pre-incubated for 15 minutes at room temperature with 40 μM GDP prior to distribution in plates (20 μM final). The reversal of acetylcholine-induced stimulation (10 μM final) of [^35S]GTPγS binding is used to assay the antagonist properties (IC50) of the compounds. The plates are incubated for 60 minutes at room temperature then centrifuged at 400 rpm for 5 minutes. The radioactivity (cpm) is counted in a Trilux (Perkin-Elmer). Values of EC50, IC50 and Emax are obtained using sigmoidal fits of a non-linear curve-fitting program (XLfit version 4.2.2 Excel add-in version 4.2.2 build 18 math 1Q version 2.1.2 build 18) of percent stimulated [^35S]GTPγS binding vs. log(molar ligand). All pEC50 and pIC50 values are reported as arithmetic means±standard error of mean of ‘n’ independent experiments.

The target in the next assay is T2, cloned human M2 receptor (Homo sapiens, UniProt P08172).
T2 construct: purchased Perkin-Elmer RBHM2M; host or cells: Chinese hamster ovary cells (CHO), membranes
T2 sequence (P08172 1-466): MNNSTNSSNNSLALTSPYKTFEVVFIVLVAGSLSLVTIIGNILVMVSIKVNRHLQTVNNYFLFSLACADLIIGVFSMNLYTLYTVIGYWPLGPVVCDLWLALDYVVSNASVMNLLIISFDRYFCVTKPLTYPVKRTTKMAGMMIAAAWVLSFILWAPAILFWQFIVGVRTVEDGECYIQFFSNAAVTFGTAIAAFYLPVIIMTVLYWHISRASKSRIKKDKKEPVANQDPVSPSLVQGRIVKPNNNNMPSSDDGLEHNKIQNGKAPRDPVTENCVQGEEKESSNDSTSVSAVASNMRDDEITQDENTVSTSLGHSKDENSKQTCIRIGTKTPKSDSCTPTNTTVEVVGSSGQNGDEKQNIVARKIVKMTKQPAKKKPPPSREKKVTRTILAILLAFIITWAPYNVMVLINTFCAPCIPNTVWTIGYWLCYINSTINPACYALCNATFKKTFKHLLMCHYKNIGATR
The assay can be described thus: hM2 receptor GTPγS binding. The format is biochemical. The following applies: CHO membranes expressing hM2, [35S]GTPγS binding. As to the method: hM2 Receptor GTPγS Binding Membranes produced from Chinese hamster ovary cells (CHO) expressing the cloned human M2 receptor (human Muscarinic receptor subtype 2, gene bank access NM_000739), are obtained from Perkin-Elmer (RBHM2M). The membranes are thawed at 37° C., passed 3 times through a 23-gauge blunt-end needle, diluted in the GTPγS binding buffer (50 mM Hepes, 20 mM NaOH, 100 mM NaCl, 1 mM EDTA, 5 mM MgCl2, pH 7.4, 100 μM DTT). The EC50, IC50 and Emax of the compounds of the invention are evaluated from 10-point dose-response curves (three fold concentration range) done in 60 μl in 384-well non-specific binding surface plate (Corning). Ten microliters from the dose-response curves plate (5× concentration) are transferred to another 384 well plate containing 25 μl of the following: 5 μg of hM2 membranes, 500 μg of Flashblue beads (Perkin-Elmer) and GDP 25 μM. An additional 15 μl containing 3.3× (60,000 dpm) of GTPγ^35S (0.4 nM final) are added to the wells resulting in a total well volume of 50 μl. Basal and maximal stimulated [^35S]GTPγS binding are determined in absence and presence of 30 μM final of acetylcholine agonist. The membranes/beads mix are pre-incubated for 15 minutes at room temperature with 25 μM GDP prior to distribution in plates (12.5 μM final). The reversal of acetylcholine-induced stimulation (2 μM final) of [^35S]GTPγS binding is used to assay the antagonist properties (IC50) of the compounds. The plates are incubated for 60 minutes at room temperature then centrifuged at 400 rpm for 5 minutes. The radioactivity (cpm) is counted in a Trilux (Perkin-Elmer). Values of EC50, IC50 and Emax are obtained using sigmoidal fits of a non-linear curve-fitting program (XLfit version 4.2.2 Excel add-in version 4.2.2 build 18 math 1Q version 2.1.2 build 18) of percent stimulated [^35S]GTPγS binding vs. log(molar ligand). All pEC50 and pIC50 values are reported as arithmetic means±standard error of mean of ‘n’ independent experiments.

As for `CCOC[C@H]1CC[C@@H](N2CCC(N3C(=O)CO[C@H]4CCCC[C@@H]43)CC2)C1` [Example 42, (4aS,8aS)-4-(1-((1R,3S)-3-(ethoxymethyl)cyclopentyl)piperidin-4-yl)hexahydro-2H-benzo[b][1,4]oxazin-3(4H)-one], the EC50 at cloned human M4 receptor was determined as 4.24 µM; at cloned human M2 receptor, 1.6 µM.

For the compound `CCCOCC1CCC(N2CCC(N3C(=O)NC[C@H]4CCCC[C@@H]43)CC2)CC1` (single isomer, unassigned) [Example 02], the values for the EC50 at cloned human M4 receptor and at cloned human M2 receptor were 0.521 µM and 0.24 µM, respectively.

Consider `CC(C)OCC1CCC(N2CCC(N3C(=O)CO[C@H]4CCC(F)(F)C[C@@H]43)CC2)CC1` (single isomer, unassigned) [Example 37], for which the EC50 was more than 90 µM on cloned human M4 receptor and more than 13 µM on cloned human M2 receptor.

For `CCCOCC1CCC(N2CCC(N3C(=O)NC[C@H]4CCCC[C@@H]43)CC2)CC1` (single isomer, unassigned) [Example 01], the results for the 50% effective concentration (EC50) at cloned human M4 receptor and on cloned human M2 receptor were more than 51.9 µM and 7.7 µM, respectively.

In the case of `CC(C)OCC1CCC(N2CCC(N3C(=O)CO[C@H]4CCCC[C@@H]43)CC2)CC1` (mixture of isomers) [Example 15, (4aS,8aS)-4-(1-(4-(isopropoxymethyl)cyclohexyl)piperidin-4-yl)hexahydro-2H-benzo[b][1,4]oxazin-3(4H)-one], the EC50 is more than 33.5 µM at cloned human M4 receptor and 3.5 µM at cloned human M2 receptor.

Consider `CC(C)OCC1CCC(N2CCC(N3C(=O)CO[C@H]4CCCC[C@@H]43)CC2)CC1` (single isomer, unassigned) [Example 19], for which the figures for the EC50 on cloned human M4 receptor and at cloned human M2 receptor were more than 43.4 µM and 8.7 µM, respectively.

In the case of `CCOCC1CCC(N2CCC(N3C(=O)CO[C@H]4CCCC[C@@H]43)CC2)CC1` (single isomer, unassigned) [Example 13], the EC50 is more than 23.4 µM at cloned human M4 receptor and more than 21 µM on cloned human M2 receptor.

`CCCOC1CCC(N2CCC(N3C(=O)NC[C@H]4CCCC[C@@H]43)CC2)CC1` (single isomer, unassigned) [Example 06]: the EC50 on cloned human M4 receptor is more than 90 µM; at cloned human M2 receptor it was 2.5 µM.

As to `CC(C)OCC1CCC(N2CCC(N3C(=O)NC[C@H]4CCCC[C@@H]43)CC2)CC1` (single isomer, unassigned) [Example 04], the EC50 on cloned human M4 receptor is 0.683 µM; at cloned human M2 receptor it was 0.66 µM.

For `CCCOC1CCC(N2CCC(N3C(=O)CO[C@H]4CCCC[C@@H]43)CC2)CC1` (single isomer, unassigned) [Example 17], the figures for the EC50 at cloned human M4 receptor and at cloned human M2 receptor were more than 90 µM and more than 48 µM, respectively.

On to `CCOC[C@@H]1CC[C@H](N2CCC(N3C(=O)CO[C@H]4CCCC[C@@H]43)CC2)C1` [Example 43, (4aS,8aS)-4-(1-((1S,3R)-3-(ethoxymethyl)cyclopentyl)piperidin-4-yl)hexahydro-2H-benzo[b][1,4]oxazin-3(4H)-one], for which the values for the EC50 at cloned human M4 receptor and on cloned human M2 receptor were more than 28.1 µM and more than 3.9 µM, respectively.

For `O=C1COC2CCCC2N1C1CCN([C@H]2CC[C@@H](COCC3CC3)CC2)CC1` (single isomer, unassigned) [Example 48], the EC50 on cloned human M4 receptor is more than 11.7 µM; at cloned human M2 receptor it was 2.2 µM.

With `CC(C)OCC1CCC(N2CCC(N3C(=O)CO[C@H]4CCCC[C@@H]43)CC2)CC1` (single isomer, unassigned) [Example 18], the values for the EC50 on cloned human M4 receptor and at cloned human M2 receptor were more than 24.9 µM and 3.5 µM, respectively.

With `O=C1CO[C@H]2CCCC[C@@H]2N1C1CCN(C2CCC(COCC3CC3)CC2)CC1` (single isomer, unassigned) [Example 22], the EC50 is more than 90 µM on cloned human M4 receptor and 1 µM on cloned human M2 receptor.

As for `O=C1CO[C@H]2CCCC[C@@H]2N1C1CCN(C2CC(COCC3CCC3)C2)CC1` (single isomer, unassigned) [Example 40], the EC50 is more than 90 µM at cloned human M4 receptor and 4.4 µM at cloned human M2 receptor.

Turning to `O=C1CO[C@H]2CCCC[C@@H]2N1C1CCN(C2CCC(COCC(F)F)CC2)CC1` (single isomer, unassigned) [Example 26], the EC50 is more than 90 µM on cloned human M4 receptor and more than 3.6 µM on cloned human M2 receptor.

Turning to `CCOCC1CCC(N2CCC(N3C(=O)CO[C@H]4CCCC[C@@H]43)CC2)CC1` (single isomer, unassigned) [Example 14], the results for the concentration for a half-maximal effect (EC50) at cloned human M4 receptor and on cloned human M2 receptor were 4.84 µM and 2.8 µM, respectively.

With `O=C1NC[C@H]2CCCC[C@@H]2N1C1CCN(C2CCC(COCC(F)F)CC2)CC1` (single isomer, unassigned) [Example 51], the EC50 on cloned human M4 receptor was more than 90 µM; on cloned human M2 receptor, 3 µM.

As to `CCOCC1CCC(N2CCC(N3C(=O)CO[C@H]4CCCC[C@@H]43)CC2)C1` (single isomer, unassigned) [Example 45], the EC50 is more than 14.7 µM on cloned human M4 receptor and 6.1 µM at cloned human M2 receptor.

Consider `CCOCC1CCC(N2CCC(N3C(=O)CO[C@H]4CCCC[C@@H]43)CC2)C1` (single isomer, unassigned) [Example 44], for which the half-maximal effective concentration (EC50) at cloned human M4 receptor was 5.36 µM; on cloned human M2 receptor, 1.6 µM.

As for `O=C1CO[C@H]2CCCC[C@@H]2N1C1CCN(C2CCC(COCCF)CC2)CC1` (single isomer, unassigned) [Example 25], the EC50 on cloned human M4 receptor is more than 26.5 µM; at cloned human M2 receptor it was more than 2.7 µM.

Turning to `CCOCC1CCC(N2CCC(N3C(=O)NC[C@H]4CCCC[C@@H]43)CC2)CC1` (mixture of isomers) [Example 08, (4aR,8aS)-1-(1-(4-(ethoxymethyl)cyclohexyl)piperidin-4-yl)octahydroquinazolin-2(1H)-one], the EC50 at cloned human M4 receptor amounted to 0.985 µM; on cloned human M2 receptor, 0.35 µM.

`O=C1CO[C@H]2CCCC[C@@H]2N1C1CCN(C2CCC(COCC3CC3)CC2)CC1` (single isomer, unassigned) [Example 23]: the EC50 at cloned human M4 receptor was more than 90 µM; on cloned human M2 receptor it was more than 1.2 µM.

In the case of `CCOCC1CC(N2CCC(N3C(=O)CO[C@H]4CCCC[C@@H]43)CC2)C1` (single isomer, unassigned) [Example 39], the values for the EC50 on cloned human M4 receptor and at cloned human M2 receptor were more than 90 µM and 5 µM, respectively.
